Each block holds one molecule with its values, some of them ahead of it. Calls of active or inactive are those of the source. The rule behind the calls is not given here.
How the values were obtained:
[1] = Drug uptake in human PANC1 cells in presence of dynamin-inhibitor dynasore; assay type: ADME, cell-based; details: panc-1
[2] = Drug uptake in human PANC1 cells at 5 uM after 16 hrs by FACS analysis; assay type: ADME, cell-based; details: panc-1, 16 h
Quadruplex DNA [3] = assay: Binding affinity to NRAS RNA g-quadruplex (unknown origin) by fluorescence spectroscopy; assay type: nucleic-acid assay
Quadruplex DNA [4] = assay: Binding affinity to human KRAS utr-z RNA g-quadruplex by fluorescence spectroscopy; assay type: nucleic-acid assay
[5] = Drug uptake in human PANC1 cells at 5 uM after 2 hrs by FACS analysis; assay type: ADME, cell-based; details: panc-1, 2 h
Quadruplex DNA [6] = assay: Binding affinity to human KRAS utr-1 RNA g-quadruplex by fluorescence spectroscopy; assay type: nucleic-acid assay
Quadruplex DNA [7] = assay: Binding affinity to human KRAS utr-c RNA g-quadruplex by fluorescence spectroscopy; assay type: nucleic-acid assay
Quadruplex DNA [8] = assay: Binding affinity to human KRAS utr-z RNA g-quadruplex assessed as compound-RNA complex stoichiometry ratio of 4:1 by Job's plot analysis; assay type: nucleic-acid assay
Quadruplex DNA [9] = assay: Binding affinity to human KRAS utr-z RNA g-quadruplex assessed as compound-RNA complex stoichiometry ratio of 1:1 by Job's plot analysis; assay type: nucleic-acid assay
[10] = Binding affinity to 20-mer stem-loop RNA (unknown origin) assessed as compound-RNA complex stoichiometry ratio of 2:1 by Job's plot analysis
RNA [11] = assay: Binding affinity to total RNA in human PANC1 cells assessed as increase in amount of KRAS mRNA in recovered RNA from biotin-streptavidin pulled down at 0.2 to 0.6 uM at pH 7.4 and 4 degree C using biotinylated compound by qRT-PCR analysis relative to control; assay type: cell-based
RNA [12] = assay: Binding affinity to total RNA in human PANC1 cells assessed as increase in amount of beta2-microglobulin mRNA in recovered RNA from biotin-streptavidin pulled down at 0.2 to 0.6 uM at pH 7.4 and 4 degree C using biotinylated compound by qRT-PCR analysis; assay type: cell-based
DNA [13] = assay: Binding affinity to DNA (unknown origin) strands containing 95 and 89 nucleotides in ratio of 1:2 assessed as presence of ssDNA when G4 motif of 95 nucleotides interact with biotinylated compound at > 0.4 uM at pH 7.4 after 1 hr by biotin-streptavidin pull-down assay; assay type: nucleic-acid assay
DNA [14] = assay: Binding affinity to DNA (unknown origin) strands containing 95 and 89 nucleotides in ratio of 1:2 assessed as interaction between G4 motif of 95 nucleotides and biotinylated compound at 0.2 to 0.4 uM at pH 7.4 after 1 hr by biotin-streptavidin pull-down assay; assay type: nucleic-acid assay
RNA [15] = assay: Binding affinity to total RNA in human PANC1 cells assessed as increase in amount of HPRT mRNA in recovered RNA from biotin-streptavidin pulled down at 0.2 to 0.6 uM at pH 7.4 and 4 degree C using biotinylated compound by qRT-PCR analysis; assay type: cell-based
RNA [16] = assay: Binding affinity to total RNA in human PANC1 cells assessed as increase in amount of NRAS mRNA in recovered RNA from biotin-streptavidin pulled down at 0.2 to 0.6 uM at pH 7.4 and 4 degree C using biotinylated compound by qRT-PCR analysis relative to control; assay type: cell-based
PANC-1 [17] = assay: Antitumor activity against human PANC1 cells xenografted in SCID mouse assessed as reduction in tumor growth at 30 mg/kg administered intratumorally measured after 14 days by micrometer caliper method; assay type: functional, organism-based
PANC-1 [18] = assay: Photodynamic antitumor activity against human PANC1 cells xenografted in SCID mouse assessed as reduction in tumor growth at 30 mg/kg administered intratumorally after 2 hrs photoirradiated by diode laser at 193 J/cm2 measured after 14 days by micrometer caliper method; assay type: functional, organism-based

Structure (SMILES): C[n+]1ccc(-c2c3nc(c(-c4cc[n+](C)cc4)c4ccc([nH]4)c(-c4cc[n+](C)cc4)c4nc(c(-c5cc[n+](C)cc5)c5ccc2[nH]5)C=C4)C=C3)cc1.[Cl-].[Cl-].[Cl-].[Cl-] [TMPYP4 CHLORIDE]
- Drug uptake [1]: Active
- Drug uptake [2]: Active
- Kd (Quadruplex DNA [3]): 301 nM
- Kd (Quadruplex DNA [4]): 681 nM
- Drug uptake [5]: Not Active
- Kd (Quadruplex DNA [6]): 454 nM
- Kd (Quadruplex DNA [7]): 1020 nM

Structure (SMILES): C[n+]1ccc(-c2c3nc(c(-c4cc[n+](C)cc4)c4ccc([nH]4)c(-c4cc[n+](C)cc4)c4ccc([nH]4)c(-c4cc[n+](C)cc4)c4nc2C=C4)C=C3)cc1
- Activity (Quadruplex DNA [8]): Active
- Activity (Quadruplex DNA [9]): Active
- Activity [10]: Active

- Activity (DNA [13]): Active
- Activity (DNA [14]): Active
Structure (SMILES): C[n+]1ccc(-c2c3nc(c(-c4cc[n+](C)cc4)c4ccc([nH]4)c(-c4cc[n+](CCCCCCCCCCCCNC(=O)CCCC[C@@H]5SC[C@@H]6NC(=O)N[C@@H]65)cc4)c4nc(c(-c5cc[n+](C)cc5)c5ccc2[nH]5)C=C4)C=C3)cc1
- fold change (FC) (RNA [11]): 25
- Activity (RNA [12]): inactive
- Activity (RNA [15]): inactive
- Activity (RNA [16]): Active

Structure (SMILES): C[n+]1ccccc1-c1c2nc(c(-c3cccc[n+]3C)c3ccc([nH]3)c(-c3cccc[n+]3C)c3ccc([nH]3)c(-c3cccc[n+]3C)c3nc1C=C3)C=C2.[Cl-].[Cl-].[Cl-].[Cl-]
- Activity (PANC-1 [17]): inactive
- Drug uptake [2]: Active
- Drug uptake [5]: Not Active
- Activity (PANC-1 [18]): inactive

Source: ChEMBL document CHEMBL4376882, “Photodynamic Therapy for ras-Driven Cancers: Targeting G-Quadruplex RNA Structures with Bifunctional Alkyl-Modified Porphyrins” (J Med Chem, 2020)
